Measured values: patent US8323708B2, “Poultry meat and eggs comprising beneficial fatty acids” (Monsanto Technology LLC, priority 2009, dated 2012)

What was measured:
[1] = 21 day broiler study: long chain fatty acid composition of skinless breast meat; format: in vivo, broiler chickens; details: day 21-42
Method: (§1) A 21 day study was conducted to determine whether broiler chickens fed a diet containing SDA could produce meat with elevated levels of omega-3 fatty acids including EPA and DHA.
(§2) Fifty pens of four birds per pen were used. There were 25 pens of males and 25 pens of females. Five pens of males and five pens of females were each fed one of five treatment diets from day 21 to 42 days of age. Prior to day 21 all birds were fed a standard 22% protein starter diet formulated to meet NRC (1994) nutrient requirements (shown in Table 16 as “S” diet). The feed prepared was feed as a crumble.
(§3) The test diets were prepared and fed in mash form. All broilers had ad libitum access to feed and water for the duration of the 21 day study. The composition of the diets (Table 4) and premixes (Table 5) are provided below.
(§4) To help prevent oxidation of the fatty acids, 0.05% ethoxyquin (Rendox) was added to each premix. Premixes were manufactured within 3 days of arrival of ethyl esters. To limit oxidation associated with storage, diets were manufactured once and stored in a refrigerated cooler at 4° C. during the duration of the study.
(§5) For male pens only, four out of the five pens were randomly selected. Two birds from each of these pens were randomly selected (eights birds per treatment). The right and left thigh and right and left breast from these 40 birds were bagged and labeled and frozen. The right breast and thigh samples were analyzed for shelf life stability and the left skinless breast and left boneless, skinless thigh from these same birds were analyzed for fatty acid composition.

[2] = 21 day broiler study: long chain fatty acid composition of thigh meat; format: in vivo, broiler chickens; details: day 21-42; for ALA (C18:3n-3) / DHA (C22:6n-3) / DPA (C22:5 n-3) / EPA (C20:5n-3) / Omega 6/Omega 3 ratio / SDA (C18:4n-3) / Total omega 3's: boneless skinless thigh meat
Method: as §1, §2, §3, §4, §5

[3] = 42 day broiler study: fatty acid composition of breast meat; format: in vivo, broiler chickens (Ross x Ross 308)
Method: (§6) A 42 day study was conducted to determine whether broiler chickens fed a diet containing SDA could produce meat with elevated levels of omega-3 fatty acids as compared to chickens fed diets containing DHA and fish oil.
(§7) Fifty six pens of 25 male birds (Ross×Ross 308) per pen were used. Day old birds were obtained and immediately placed in floor pens containing (used) pine wood shavings, hanging tube feeders and nipple-waterers or plassons. Eight pens were each fed one of seven treatments for 42 days. The experiment was divided into four growth phases (0-7 days, 7-21 days, 21-35 days, and 35-42 days). The experimental diets were crumbled for the first two phases (0-21 days) and pelleted thereafter.
(§8) Diets consisted of 93% base mix (Table 10) plus 7% Test Oil Mix (Table 11). The diets supplied 3008, 3083, 3183 and 3208 kcal/kg of metabolizable energy for the pre-starter, starter, grower and finisher phases, respectively.
(§9) A randomized block design was used. Treatments were randomly assigned to pens such that each of the seven treatments was replicated 8 times (8 pens with each pen containing 25 birds).
(§10) On day 42, following a 10-hour period of feed withdrawal, 8 birds per pen (64 birds/treatment; 7 treatments; 448 birds total) were randomly selected and processed using commercial processing procedures. Carcasses were cut-up and de-boned at 4 hours postmortem. Carcass and parts yields were calculated and meat samples (breast and thigh) were collected for meat quality, fatty acid analysis, and sensory evaluation.

[4] = 42 day broiler study: fatty acid composition of thigh meat and attached skin; format: in vivo, broiler chickens (Ross x Ross 308)
Method: as §6, §7, §8, §9, §10

[5] = Laying hen study: long chain fatty acid composition of eggs; format: in vivo, laying hens; details: total egg
Method: A study was conducted to determine whether laying hens fed a diet enriched in stearidonic acid could produce eggs with elevated levels of beneficial omega-3 fatty acids including EPA and DHA. Mature laying hens […] were randomly allotted to seven dietary treatments (16 hens/treatment) and were fed diets containing the following levels of n-3 fatty acids as described in Table 28 for four weeks. Sixteen birds were given each treatment. Four birds were randomly selected out of the 16 per treatment to obtain eggs during week 4 for fatty acid composition. […] The laying hens had ad libitum access to feed and water. The composition of the diets (Table 29) and premixes (Table 30) are provided below. To help prevent oxidation of the fatty acids, 0.05% ethoxyquin (Rendox) was added to each premix. Premixes were manufactured within 3 days of arrival of ethyl esters. To limit the oxidation associated with storage, diets were manufactured once and stored in a refrigerated cooler at 4° C. during the duration of the study. Eggs collected during […] (days 22-28) were maintained under refrigerated conditions until all eggs for that week were collected. Eggs were sorted by hen and treatment. Two eggs per hen from 4 hens per treatment were taken. The two eggs were weighed individually, cracked and the shell weighed. The difference between fresh egg and shell represented liquid egg weight and served as the basis for further calculations. The liquid fraction from each of the two eggs per hen were combined in a sample cup and homogenized. Samples were analyzed for fatty acids by gas chromatography.

[6] = 0.27% in feed (as ethyl esters), day 0-42
[7] = thigh meat and attached skin, 0.27% in feed (as ethyl esters), day 0-42

Structure (SMILES): CC/C=C\C/C=C\C/C=C\C/C=C\C/C=C\C/C=C\CCC(=O)OCC [DHA Ethyl Ester]
- ALA (C18:3n-3) ([1]; ethyl ester 0.163% of diet): 10 mg/100 g
- DHA (C22:6n-3) ([1]; ethyl ester 0.163% of diet): 55.0 mg/100 g
- DPA (C22:5 n-3) ([1]; ethyl ester 0.163% of diet): 10 mg/100 g
- EPA (C20:5n-3) ([1]; ethyl ester 0.163% of diet): 10 mg/100 g
- Omega 6/Omega 3 ratio ([1]; ethyl ester 0.163% of diet): 2.9
- Total omega 3's ([1]; ethyl ester 0.163% of diet): 85.0 mg/100 g
- ALA (C18:3n-3) ([1]; ethyl ester 0.326% of diet): 10 mg/100 g
- DHA (C22:6n-3) ([1]; ethyl ester 0.326% of diet): 80 mg/100 g
- DPA (C22:5 n-3) ([1]; ethyl ester 0.326% of diet): 10 mg/100 g
- EPA (C20:5n-3) ([1]; ethyl ester 0.326% of diet): 10 mg/100 g
- Omega 6/Omega 3 ratio ([1]; ethyl ester 0.326% of diet): 1.9
- Total omega 3's ([1]; ethyl ester 0.326% of diet): 110 mg/100 g
- ALA (C18:3n-3) ([2]; ethyl ester 0.163% of diet): 70 mg/100 g
- DHA (C22:6n-3) ([2]; ethyl ester 0.163% of diet): 67.5 mg/100 g
- DPA (C22:5 n-3) ([2]; ethyl ester 0.163% of diet): 15 mg/100 g
- EPA (C20:5n-3) ([2]; ethyl ester 0.163% of diet): 10 mg/100 g
- Omega 6/Omega 3 ratio ([2]; ethyl ester 0.163% of diet): 8.4
- SDA (C18:4n-3) ([2]; ethyl ester 0.163% of diet): 10 mg/100 g
- Total omega 3's ([2]; ethyl ester 0.163% of diet): 172.5 mg/100 g
- ALA (C18:3n-3) ([2]; ethyl ester 0.326% of diet): 75 mg/100 g
- DHA (C22:6n-3) ([2]; ethyl ester 0.326% of diet): 125 mg/100 g
- DPA (C22:5 n-3) ([2]; ethyl ester 0.326% of diet): 20 mg/100 g
- EPA (C20:5n-3) ([2]; ethyl ester 0.326% of diet): 27.5 mg/100 g
- Omega 6/Omega 3 ratio ([2]; ethyl ester 0.326% of diet): 5.7
- SDA (C18:4n-3) ([2]; ethyl ester 0.326% of diet): 10 mg/100 g
- Total omega 3's ([2]; ethyl ester 0.326% of diet): 257.5 mg/100 g
- total omega 3 fatty acids in thigh meat relative to breast meat ([2]; supplemented birds): 2 times
- ARA C20:4n-6 [3, 6]: 3.01 % of fatty acids
- C16:0 [3, 6]: 21.82 % of fatty acids
- C16:1 [3, 6]: 3.09 % of fatty acids
- C18:0 [3, 6]: 8.76 % of fatty acids
- C18:1 [3, 6]: 30.41 % of fatty acids
- C18:2 [3, 6]: 22.94 % of fatty acids
- C22:4n-6 [3, 6]: 0.53 % of fatty acids
- DHA (C22:6n-3) [3, 6]: 2.78 % of fatty acids
- DPA (C22:5 n-3) [3, 6]: 0.48 % of fatty acids
- EPA (C20:5n-3) [3, 6]: 0.16 % of fatty acids
- SDA (C18:4n-3) [3, 6]: 0.59 % of fatty acids
- Total C18:3 [3, 6]: 0.66 % of fatty acids
- Total SDA, EPA, DPA and DHA concentrations ([3]; % of fatty acids, 0.27% in feed): 4.00%
- ARA C20:4n-6 [4, 7]: 0.81 % of fatty acids
- C16:0 [4, 7]: 21.71 % of fatty acids
- C16:1 [4, 7]: 4.48 % of fatty acids
- C18:0 [4, 7]: 6.31 % of fatty acids
- C18:1 [4, 7]: 35.94 % of fatty acids
- C18:2 [4, 7]: 25.99 % of fatty acids
- C20:4n-3 [4, 7]: 0.03 % of fatty acids
- C22:4n-6 [4, 7]: 0.16 % of fatty acids
- DHA (C22:6n-3) [4, 7]: 0.73 % of fatty acids
- DPA (C22:5 n-3) [4, 7]: 0.14 % of fatty acids
- EPA (C20:5n-3) [4, 7]: 0.11 % of fatty acids
- SDA (C18:4n-3) [4, 7]: 0.24 % of fatty acids
- Total C18:3 [4, 7]: 1.03 % of fatty acids
- Total SDA, EPA, DPA and DHA concentrations ([4]; thigh meat, 0.27% in feed): 1.2%
- ALA (C18:3n-3) ([5]; 0.163% of diet): 40 mg/100 g
- DHA (C22:6n-3) ([5]; 0.163% of diet): 177.5 mg/100 g
- DPA (C22:5 n-3) ([5]; 0.163% of diet): 10 mg/100 g
- Omega 6/Omega 3 ratio ([5]; 0.163% of diet): 5.7
- Total omega 3's ([5]; 0.163% of diet): 227.5 mg/100 g
- ALA (C18:3n-3) ([5]; 0.326% of diet): 40 mg/100 g
- DHA (C22:6n-3) ([5]; 0.326% of diet): 247.5 mg/100 g
- DPA (C22:5 n-3) ([5]; 0.326% of diet): 10 mg/100 g
- EPA (C20:5n-3) ([5]; 0.326% of diet): 10 mg/100 g
- Omega 6/Omega 3 ratio ([5]; 0.326% of diet): 3.8
- Total omega 3's ([5]; 0.326% of diet): 307.5 mg/100 g
